Test results as given in US11884708B2, “Stapled peptide inhibitors of nemo as potential anti-inflammatory and anti-cancer drugs” (INSTITUT PASTEUR, priority 2015, dated 2024).
Where two headings read alike, the source gives them in different places. Where a SMILES comes first, the peptide text is derived from it. Bridges are numbered along the chain shown (N, C = ends). Where no end group is shown, it is not given here. [ ]: non-standard residue; d: D form. The star is where a group is joined. BODIPYFLEthylmaleimide = Cc1cc(C)n2c1C=C1C=CC(CCC(=O)NCCN3C(=O)CC(*)C3=O)=[N+]1[B-]2(F)F; R8 = C=CCCCCCC[C@@](C)(N)C(=O)O; S5 = C=CCCC[C@](C)(N)C(=O)O

Key:
NF-κB pathway = NF-κB pathway (Mus musculus, UniProt O88522); assay: NF-κB inhibition assay, LPS-stimulated 70Z3-C3 lacZ reporter cells; type: cell-based; conditions: 70Z3-C3 cells, 2 h peptide then LPS 4 h, N.I = No inhibition observed; for IC50: read-out: IC 50 NF-κB inhibition
NF-κB pathway, sequence (O88522 whole entry): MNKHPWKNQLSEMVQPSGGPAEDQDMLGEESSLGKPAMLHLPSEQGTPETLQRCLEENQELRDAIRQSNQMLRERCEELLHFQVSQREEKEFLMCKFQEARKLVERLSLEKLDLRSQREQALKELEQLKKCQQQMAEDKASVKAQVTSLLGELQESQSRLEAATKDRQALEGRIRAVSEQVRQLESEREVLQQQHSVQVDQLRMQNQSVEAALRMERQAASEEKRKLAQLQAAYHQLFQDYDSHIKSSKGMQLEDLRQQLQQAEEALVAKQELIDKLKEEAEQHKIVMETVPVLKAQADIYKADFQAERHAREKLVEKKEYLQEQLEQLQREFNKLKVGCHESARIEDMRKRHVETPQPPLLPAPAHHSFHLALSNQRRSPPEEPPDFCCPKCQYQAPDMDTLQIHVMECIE
From the text: The stable cell line of pre-B lymphocyte 70Z3-C3 cells expressing the lacZ reporter gene under the control of NF-κB was previously described. OCI-Ly3 (ABC-DLBCL, MALT1 dependent) and OCI-Ly7 (GCB-DLBCL). U2932 (ABC-DLBCL, MALT1 independent) were purchased from DSMZ (Deutsche Sammlung von Mikroorganismen and Zellkulturen) and HLY1 (ABC-DLBCL, MALT1 independent). Jurkat T-cells were obtained after transduction of lentiviruses containing a NF-κB reporter luciferase gene as previously described. All cell lines were grown in RPMI 1640 medium supplemented with 10% FBS, 10 μg/ml of streptomycin, 10 U/ml of penicillin and kept at 37° C., in a 5% CO2 humidified incubator. 0.05 mM of β-mercaptoethanol was added for 70Z3-C3. Primary and secondary antibodies were as following: polyclonal rabbit anti NF-κB p65, (sc-372, Santa Cruz Biotechnology, Inc) Alexa-488 coupled goat anti-rabbit IgG1 (Invitrogen) NF-κB inhibition assay was almost similar to those previously described in [1], except that luminescence data were monitored with a Centro XS^3, LB960 luminometer (Berthold technologies.), which is more sensitive. All experiments were performed in duplicates in 96-well plates. […] After 4 h incubation, cells were centrifuged 7 min at 400×g, at 4° C.

CC2-LZ domain of NEMO = CC2-LZ domain of NEMO (Mus musculus, UniProt O88522); assay: Fluorescence anisotropy/polarization binding assay; conditions: for Kd: fixed peptide concentration 0.1 μM
CC2-LZ domain of NEMO, sequence (O88522 242-343 limits assumed): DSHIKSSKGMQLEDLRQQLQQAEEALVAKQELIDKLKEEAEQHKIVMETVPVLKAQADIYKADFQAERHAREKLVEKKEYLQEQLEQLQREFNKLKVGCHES

[1] = CD spectroscopy, α-helical content; type: physicochemical; conditions: 50 μM peptide, phosphate buffer pH 7.0, UBI in TFE taken as 100%
[2] = Temperature-induced denaturation followed by CD; type: physicochemical; conditions: 30 μM or 300 μM, ΔCp ≈ 0
Experimental: Temperature-induced denaturation experiments were performed by measuring the ellipticity at 222 nm from 1° C. to 95° C. in 1° C. steps, at a rate of 1° C./min, with a 2 nm bandwidth. Thermodynamic parameters including the melting temperature (Tm) and the van't Hoff enthalpy change at the melting temperature (ΔHm) were determined by fitting the denaturation curves with the Gibbs-Helmholtz equation as described elsewhere, [10]. The heat capacity change (ΔCp) was assumed to be 0 as judged by ΔHm which yielded similar values within 10% at two independent peptide concentrations (30 and 300 μM). The ellipticity was converted to differential extinction coefficient Δε (M^−1·cm^−1) per residue taking into account the peptide concentration determined by amino acid analysis.
Thermal stability of the peptides was also investigated by performing thermal denaturation profiles followed by CD (FIGS. 1 C and D and Table III). […] Indeed, the helicity of UBI-Aib (49%) is only 1.16-fold increased at 1° C. compared to UBI (42%), while its melting temperature (Tm=−8° C.) is 2.25 times higher than that of UBI (Tm=−18° C.).

70Z3-C3 cells = assay: Cellular uptake of BODIPY-labeled peptides by FACS; type: cell-based; conditions: 10 μM labeled peptide, 2 h, 37° C.
Experimental: 2.2×10^5 cells in 100 μl of 70Z3-C3 were incubated with either 10 μM or with various doses of 10 μM, 5 μM and 1 μM of labeled-peptides at 37° C., 5% CO2. Similarly to fluorescence microscopy experiments, cells alone or incubated with BODIPY®-labeled BSA (ref) or BODIPY®-UBI devoid of the antennapedia cell penetrating sequence were used as negative control, whereas cells with BA-UBI [1] at 10 μM were used as positive control. After 2 h incubation, cells were washed 4 times with PBS at room temperature, and finally diluted 1:3 in PBS before subjected to FACS analysis. Along with the BODIPY® fluorophore the fluorescence intensity was recorded at 525±25 nm using the Gallios Flow cytometer (Beckman Coulter) to analyse each cells sample. Each internalization peptide was assessed by gating a population of 15,000 events and the data were analysed using Kaluza software version 1.2.
For determination of cellular uptake by flow cytometry, the BA-UBI-SAHND306-Q313 stapled peptide was first incubated with 2.2×10^5 70Z3-C3 cells in […] either at 4° C. or 37° C. for 2 h. Bodipy-labeled BSA, bodipy alone and bodipy-UBI were used as negative controls to verify the washing quality and efficient removal of any non-specific binding at the cell surface before FACS analysis. […] After 2 h of incubation, cells were washed four times with PBS at room temperature and diluted at 1:3 in PBS for FACS analysis. Samples were analyzed as previously described in the European patent (No: 15307137.8).

Molecule `CC[C@H](C)[C@@H]1NC(=O)[C@H](CC(=O)O)NC(=O)[C@H](C)NC(=O)[C@H](CCC(N)=O)NC(=O)[C@](C)(NC(=O)[C@H](CCCCN)NC(=O)[C@H](CC(C)C)NC(=O)[C@H](CCCCN)NC(=O)[C@H](CCCCN)NC(=O)[C@H](Cc2c[nH]c3ccccc23)NC(=O)[C@H](CCCCN)NC(=O)[C@H](CCSC)NC(=O)[C@H](CCCNC(=N)N)NC(=O)[C@H](CCCNC(=N)N)NC(=O)[C@H](CC(N)=O)NC(=O)[C@H](CCC(N)=O)NC(=O)[C@H](Cc2ccccc2)NC(=O)[C@H](Cc2c[nH]c3ccccc23)NC(=O)[C@@H](NC(=O)[C@H](CCCCN)NC(=O)[C@@H](NC(=O)[C@H](CCC(N)=O)NC(=O)[C@H](CCCNC(=N)N)NC(=O)[C@H](CSC2CC(=O)N(CCNC(=O)CCC3=[N+]4C(=Cc5c(C)cc(C)n5[B-]4(F)F)C=C3)C2=O)NC(C)=O)[C@@H](C)CC)[C@@H](C)CC)CCCCCCC=CCCC[C@@](C)(C(=O)N[C@@H](CCCNC(=N)N)C(=O)N[C@@H](Cc2ccccc2)C(=O)N[C@@H](CCC(N)=O)C(=O)N[C@@H](C)C(=O)N[C@@H](CCC(=O)O)C(=O)N[C@@H](CCCNC(=N)N)C(=O)N[C@@H](Cc2c[nH]cn2)C(=O)N[C@@H](C)C(=O)N[C@@H](CCCNC(=N)N)C(=O)N[C@@H](CCC(=O)O)C(=O)N[C@@H](CCCCN)C(N)=O)NC(=O)[C@H](CCCCN)NC(=O)[C@H](Cc2ccc(O)cc2)NC1=O` (single isomer, unassigned) [A-UBI-SAHN A303-A310 (B)] has an IC50 (NF-κB pathway) of 600 nM.

`CC[C@H](C)[C@H](NC(=O)[C@H](CCCCN)NC(=O)[C@@H](NC(=O)[C@H](CCC(N)=O)NC(=O)[C@H](CCCNC(=N)N)NC(=O)[C@H](CSC1CC(=O)N(CCNC(=O)CCC2=[N+]3C(=Cc4c(C)cc(C)n4[B-]3(F)F)C=C2)C1=O)NC(C)=O)[C@@H](C)CC)C(=O)N[C@@H](Cc1c[nH]c2ccccc12)C(=O)N[C@@H](Cc1ccccc1)C(=O)N[C@@H](CCC(N)=O)C(=O)N[C@@H](CC(N)=O)C(=O)N[C@@H](CCCNC(=N)N)C(=O)N[C@@H](CCCNC(=N)N)C(=O)N[C@@H](CCSC)C(=O)N[C@@H](CCCCN)C(=O)N[C@@H](Cc1c[nH]c2ccccc12)C(=O)N[C@@H](CCCCN)C(=O)N[C@@H](CCCCN)C(=O)N[C@@H](CC(C)C)C(=O)N[C@@H](CCCCN)C(=O)N[C@@H](C)C(=O)N[C@@H](CCC(N)=O)C(=O)N[C@@H](C)C(=O)N[C@]1(C)CCCCCCC=CCCC[C@@](C)(C(=O)N[C@@H](C)C(=O)N[C@@H](CCC(=O)O)C(=O)N[C@@H](CCCNC(=N)N)C(=O)N[C@@H](Cc2c[nH]cn2)C(=O)N[C@@H](C)C(=O)N[C@@H](CCCNC(=N)N)C(=O)N[C@@H](CCC(=O)O)C(=O)N[C@@H](CCCCN)C(N)=O)NC(=O)[C@H](Cc2ccccc2)NC(=O)[C@H](CCCNC(=N)N)NC(=O)[C@H](C)NC(=O)[C@H](CCCCN)NC(=O)[C@H](Cc2ccc(O)cc2)NC(=O)[C@H]([C@@H](C)CC)NC1=O` (single isomer, unassigned) [A-UBI-SAHN D306-Q313 (A)] gave a Kd (CC2-LZ domain of NEMO; peptides with antennapedia, read-out: KD) of 60 nM and an IC50 (NF-κB pathway) of 600 nM.

With `CC[C@H](C)[C@H](NC(=O)[C@H](CC(=O)O)NC(=O)[C@H](C)NC(=O)[C@H](CCC(N)=O)NC(=O)[C@H](C)NC(=O)[C@H](CCCCN)NC(=O)[C@@H](N)CC(C)C)C(=O)N[C@@H](Cc1ccc(O)cc1)C(=O)N[C@@H](CCCCN)C(=O)N[C@@H](C)C(=O)N[C@@H](CCCNC(=N)N)C(=O)N[C@@H](Cc1ccccc1)C(=O)N[C@@H](CCC(N)=O)C(=O)N[C@@H](C)C(=O)N[C@@H](CCC(=O)O)C(=O)N[C@@H](CCCNC(=N)N)C(=O)N[C@@H](Cc1c[nH]cn1)C(=O)N[C@@H](C)C(=O)N[C@@H](CCCNC(=N)N)C(=O)N[C@@H](CCC(=O)O)C(=O)N[C@@H](CCCCN)C(=O)O` [UBI, reference compound] (H-LKAQADIYKARFQAERHAREK-OH) the “IC 50 NF-κB inhibition” value (NF-κB pathway) was “N.I*”.

In the case of `CC[C@H](C)[C@H](NC(=O)[C@H](CC(=O)O)NC(=O)C(C)(C)NC(=O)[C@H](CCC(N)=O)NC(=O)C(C)(C)NC(=O)[C@H](CCCCN)NC(=O)[C@@H](N)CC(C)C)C(=O)N[C@@H](Cc1ccc(O)cc1)C(=O)N[C@@H](CCCCN)C(=O)NC(C)(C)C(=O)N[C@@H](CCCNC(=N)N)C(=O)N[C@@H](Cc1ccccc1)C(=O)N[C@@H](CCC(N)=O)C(=O)NC(C)(C)C(=O)N[C@@H](CCC(=O)O)C(=O)N[C@@H](CCCNC(=N)N)C(=O)N[C@@H](Cc1c[nH]cn1)C(=O)NC(C)(C)C(=O)N[C@@H](CCCNC(=N)N)C(=O)N[C@@H](CCC(=O)O)C(=O)N[C@@H](CCCCN)C(=O)O` [UBI-AIB, LKAibQAibDIYKAibRFQAibERHAibREK] (HELM PEPTIDE1{L.K.[Aib].Q.[Aib].D.I.Y.K.[Aib].R.F.Q.[Aib].E.R.H.[Aib].R.E.K}$$$$V2.0), the “IC 50 NF-κB inhibition” value (NF-κB pathway) is reported as “N.I*”.

In the case of `CC[C@H](C)[C@H](NC(=O)[C@H](CC(=O)O)NC(=O)[C@H](C)NC(=O)[C@H](CCC(N)=O)NC(=O)[C@H](C)NC(=O)[C@H](CCCCN)NC(=O)[C@H](CC(C)C)NC(=O)[C@H](CSC1CC(=O)N(CCNC(=O)CCC2=[N+]3C(=Cc4c(C)cc(C)n4[B-]3(F)F)C=C2)C1=O)NC(C)=O)C(=O)N[C@@H](Cc1ccc(O)cc1)C(=O)N[C@@H](CCCCN)C(=O)N[C@@]1(C)CCCC=CCCC[C@@](C)(C(=O)N[C@@H](CCC(=O)O)C(=O)N[C@@H](CCCNC(=N)N)C(=O)N[C@@H](Cc2c[nH]cn2)C(=O)N[C@@H](C)C(=O)N[C@@H](CCCNC(=N)N)C(=O)N[C@@H](CCC(=O)O)C(=O)N[C@@H](CCCCN)C(N)=O)NC(=O)[C@H](CCC(N)=O)NC(=O)[C@H](Cc2ccccc2)NC(=O)[C@H](CCCNC(=N)N)NC1=O` (some centres unmarked) [UBI-SAHN A310-A314, LKAQADIYKX4RFQX6ERHAREK] (Ac-C(BODIPYFLEthylmaleimide)LKAQADIYK[S5]RFQ[S5]ERHAREK-NH2; staple 11-15), the “α-helical content at 1° C.” value [1] is reported as 65%, the ΔS [2] is reported as −11 cal. mol^−1.K^−1 and the Tm ([2]; thermal denaturation by CD) is reported as 15 ± 0.3 C°. The ΔH ([2]; van't Hoff enthalpy change at Tm) was -3.2 kcal/mol, the Kd (CC2-LZ domain of NEMO; read-out: Binding affinity (FP) at 0.1 μM) was about 360000 nM and the “Binding affinity (FP) at 10 μM” value (CC2-LZ domain of NEMO; fixed peptide concentration 10 μM) was “Very weak”. The “IC 50 NF-κB inhibition” value (NF-κB pathway) was “N.I*”.

With “LKAQAX2IYKARFX5AERHAREK (LKAQA[R8]IYKARF[S5]AERHAREK; staple 6-13) [UBI-SAHN D306-Q313]” the “IC 50 NF-κB inhibition” value (NF-κB pathway) was “N.I*”, the “FACS peak median, first or only peak” value (70Z3-C3 cells) was 8 and the “FACS peak median, second peak” value (70Z3-C3 cells) was 52.

In the case of “LKX1QADIYKX4RFQAERHAREK [UBI-SAHN A303-A310]”, the “IC 50 NF-κB inhibition” value (NF-κB pathway) is reported as “N.I*” and the “FACS peak median, first or only peak” value (70Z3-C3 cells) is reported as 8.
